Consider 25 molecules from patent publication US20190119282A1, “IMIDAZOPYRIDAZINES USEFUL AS INHIBITORS OF THE PAR-2 SIGNALING PATHWAY” (Vertex Pharmaceuticals Incorporated, priority 2013, published 2019).

Experiment [1] deals with T1, PAR2 (HT-29 cells, SLIGKV activation) (Homo sapiens, UniProt P55085).
T1 construct: host or cells: HT-29 cells
T1 sequence (P55085 26-397): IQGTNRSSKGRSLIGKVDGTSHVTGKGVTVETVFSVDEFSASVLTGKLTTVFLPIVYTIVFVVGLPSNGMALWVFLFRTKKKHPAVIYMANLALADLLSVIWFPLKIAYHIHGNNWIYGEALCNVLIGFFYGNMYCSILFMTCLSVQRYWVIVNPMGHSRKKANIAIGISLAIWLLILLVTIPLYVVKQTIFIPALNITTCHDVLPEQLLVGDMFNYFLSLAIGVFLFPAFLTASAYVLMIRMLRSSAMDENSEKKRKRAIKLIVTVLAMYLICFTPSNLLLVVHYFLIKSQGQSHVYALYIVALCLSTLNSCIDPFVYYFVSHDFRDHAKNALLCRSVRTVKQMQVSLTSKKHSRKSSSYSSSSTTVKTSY
As to the kind of experiment: Ca FLIPR TETRA assay, ANTAGONIST mode, stimulation with 8 μM SLIGKV. In kind it is cell-based. Particulars: HT-29 cells, stimulation with 8 μM SLIGKV. In a few lines: (§1)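 HT-29 cells grown overnight in 1% FBS McCoy's medium were loaded with calcium 5 dye (45 min 37 °C, 15 min r.t.). Compounds were added and Ca2+ read for direct activation, then after 30 min at r.t. cells were stimulated with 8 μM SLIGKV, 1 U/mL thrombin, 3.1 U/mL trypsin or 0.6 μM UTP (final).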

Experiment [2] has as its target T2, PAR2 (HT-29 cells, trypsin activation) (Homo sapiens, UniProt P55085).
T2 construct: host or cells: HT-29 cells
T2 sequence (P55085 26-397): T1 sequence (P55085 26-397)
As to the kind of experiment: Ca FLIPR TETRA assay, ANTAGONIST mode, stimulation with 3.1 U/mL trypsin. It is filed as cell-based. Conditions: HT-29 cells, stimulation with 3.1 U/mL trypsin. The method in brief: as §1

For experiment [3], the system named is Thrombin-stimulated Ca2+ response in HT-29 cells. The experiment can be described thus: Ca FLIPR TETRA assay, ANTAGONIST mode, stimulation with 1 U/mL Thrombin. In kind it is cell-based, human. Particulars: Homo sapiens, HT-29 cells, stimulation with 1 U/mL Thrombin. The method in brief:
as §1

Experiment [4] deals with UTP-stimulated Ca2+ response in HT-29 cells. The experiment can be described thus: Ca FLIPR TETRA assay, ANTAGONIST mode, stimulation with 0.6 μM UTP. It is filed as cell-based, human. Conditions: Homo sapiens, HT-29 cells, stimulation with 0.6 μM UTP. In a few lines: as §1

pIC50: −log10 of the molar value. A value given as a limit tells only on which side of the number the result lay.

What is called pIC50 is the negative decadic logarithm of the IC50, by convention in mol/L. `CC(C)c1cc(-c2ccc(F)cc2)nn2cc(C(=O)N3CCN(CC(C)(C)O)C(=O)C3(C)C)nc12` [Compound I-180]: the pIC50 in experiment [1] was 7.49; in experiment [2], 7.39; in experiment [3], less than 4.30; in experiment [4], 4.74.

On to `CC(C)c1cc(-c2ccc(F)cc2)nn2cc(C(=O)N3CCN(C)C(=O)C3(C)C)nc12` [Compound I-181], for which the pIC50 in experiment [1] is 8.00; in experiment [2], 7.96; in experiment [3], 5.00; in experiment [4] it was 5.24.

Take `C[C@@H]1CN(c2cc(-c3ccc(F)cc3)nn3cc(C(=O)N4CCNC(=O)C4(C)C)nc23)C[C@H](C)O1` [Compound I-182]: the pIC50 in experiment [1] (antagonist mode) is 7.76; in experiment [2] (antagonist mode), 7.39; in experiment [3] (antagonist mode), 5.94; in experiment [4] (antagonist mode), 5.90.

Take `C[C@H]1CN(c2cc(-c3ccc(F)cc3)nn3cc(C(=O)N4CCNC(=O)C4(C)C)nc23)C[C@H](C)O1` [Compound I-183]: the negative logarithm of the IC50 (pIC50) in experiment [1] (antagonist mode) was 7.82; in experiment [2] (antagonist mode), 7.47; in experiment [3] (antagonist mode), 6.08; in experiment [4] (antagonist mode) it was 6.09.

Consider `CC(C)(O)c1cc(-c2ccc(F)cc2)nn2cc(C(=O)N3CCNC(=O)C3(C)C)nc12` [Compound I-184, 4-[6-(4-fluorophenyl)-8-(1-hydroxy-1-methyl-ethyl)imidazo[1,2-b]pyridazine-2-carbonyl]-3,3-dimethyl-piperazin-2-one], for which the pIC50 is 6.90 in experiment [1] (antagonist mode), 6.74 in experiment [2] (antagonist mode), 5.84 in experiment [3] (antagonist mode) and 5.71 in experiment [4] (antagonist mode).

`C[C@@H]1CN(c2cc(-c3ccc(F)cc3)nn3cc(C(=O)N4CCN(C(=O)C(C)(C)O)CC4(C)C)nc23)C[C@H](C)O1` [Compound I-185]: the negative logarithm of the IC50 (pIC50) in experiment [1] (antagonist mode) is 6.93; in experiment [2] (antagonist mode) it was 6.80; in experiment [3] (antagonist mode) it was less than 5.30; in experiment [4] (antagonist mode), less than 5.30.

On to `CC(C)[C@@H](O)C(=O)N1CCN(C(=O)c2cn3nc(-c4ccc(F)cc4)cc(N4C[C@@H](C)O[C@@H](C)C4)c3n2)C(C)(C)C1` [Compound I-186], for which the pIC50 in experiment [1] (antagonist mode) is 7.56; in experiment [2] (antagonist mode), 7.41; in experiment [3] (antagonist mode), 5.82; in experiment [4] (antagonist mode), 5.74.

In the case of `CC(C)c1cc(-c2ccc(F)cc2)nn2cc(C(=O)N3C[C@H](C)OCC3(C)C)nc12` [Compound I-187], the pIC50 in experiment [1] (antagonist mode) is 7.20; in experiment [2] (antagonist mode), 7.28; in experiment [3] (antagonist mode) it was less than 4.30; in experiment [4] (antagonist mode), 4.48.

Take `CN1CCN(C(=O)c2cn3nc(-c4ccc(F)cc4)cc(C(C)(C)C)c3n2)C(C)(C)C1=O` [Compound I-188]: the pIC50 is 8.74 in experiment [1] (antagonist mode), 8.40 in experiment [2] (antagonist mode), 5.60 in experiment [3] (antagonist mode) and 5.41 in experiment [4] (antagonist mode).

Consider `CC(C)(CO)c1cc(-c2ccc(F)cc2)nn2cc(C(=O)N3CCNC(=O)C3(C)C)nc12` [Compound I-189], for which the pIC50 in experiment [1] (antagonist mode) is 6.40; in experiment [2] (antagonist mode), 6.38; in experiment [3] (antagonist mode), less than 6.00; in experiment [4] (antagonist mode), less than 4.30.

`CC(C)(C)OC(=O)N1CCN(C(=O)c2cn3nc(-c4ccc(F)cc4)cc(C(C)(C)C)c3n2)C(C)(C)C1` [Compound I-190]: the negative-log IC50 (pIC50) in experiment [1] (antagonist mode) is 8.38; in experiment [2] (antagonist mode) it was 8.32; in experiment [3] (antagonist mode) it was less than 4.30; in experiment [4] (antagonist mode), less than 4.30.

Turning to `CN(C)C(=O)C(C)(C)c1cc(-c2ccc(F)cc2)nn2cc(C(=O)N3CCNC(=O)C3(C)C)nc12` [Compound I-192], the negative logarithm of the IC50 (pIC50) in experiment [1] (antagonist mode) was 6.24; in experiment [2] (antagonist mode), 5.05; in experiment [3] (antagonist mode), less than 4.30; in experiment [4] (antagonist mode), less than 4.30.

With `COCC(C)(C)c1cc(-c2ccc(F)cc2)nn2cc(C(=O)N3CCNC(=O)C3(C)C)nc12` [Compound I-193], the pIC50 is 8.28 in experiment [1] (antagonist mode), 7.34 in experiment [2] (antagonist mode), 5.00 in experiment [3] (antagonist mode) and 4.72 in experiment [4] (antagonist mode).

For `CN(C)C(=O)CN1CCN(C(=O)c2cn3nc(-c4ccc(F)cc4)cc(C(C)(C)C)c3n2)C(C)(C)C1=O` [Compound I-194], the pIC50 in experiment [1] (antagonist mode) is 7.38; in experiment [2] (antagonist mode), 7.39; in experiment [3] (antagonist mode) it was less than 6.00; in experiment [4] (antagonist mode), less than 6.00.

For the molecule `CC(C)c1cc(-c2ccc(F)cc2)nn2cc(C(=O)N3CCN(C(=O)C(O)C(C)C)C[C@H]3C)nc12` (stereo partly shown) [Compound I-195], the pIC50 in experiment [1] (antagonist mode) is 6.24; in experiment [2] (antagonist mode), less than 6.00; in experiment [3] (antagonist mode) it was less than 6.00; in experiment [4] (antagonist mode), less than 6.00.

Take `CC(C)c1cc(-c2ccc(F)cc2)nn2cc(C(=O)N3CCN(C(=O)[C@H](O)CC(C)(C)C)C[C@H]3C)nc12` [Compound I-196]: the pIC50 was 7.69 in experiment [1] (antagonist mode), 7.70 in experiment [2] (antagonist mode), less than 6.00 in experiment [3] (antagonist mode) and less than 6.00 in experiment [4] (antagonist mode).

Turning to `CC(C)c1cc(-c2ccc(F)cc2)nn2cc(C(=O)N3CCN(C(=O)[C@H](O)CC(C)(C)C)C[C@@H]3C)nc12` [Compound I-197], the pIC50 in experiment [1] (antagonist mode) was 6.82; in experiment [2] (antagonist mode), 6.37; in experiment [3] (antagonist mode), less than 6.00; in experiment [4] (antagonist mode), less than 6.00.

As to `CC(C)(O)C(=O)N1CCN(C(=O)c2cn3nc(-c4ccc(F)cc4)cc(C(C)(C)C)c3n2)C(C)(C)C1` [Compound I-198], the pIC50 in experiment [1] (antagonist mode) is 8.36; in experiment [2] (antagonist mode), 8.25; in experiment [3] (antagonist mode), less than 6.00; in experiment [4] (antagonist mode), less than 6.00.

On to `CC(C)(C)c1cc(-c2ccc(F)cc2)nn2cc(C(=O)N3CCN(C(=O)C4CCCO4)CC3(C)C)nc12` (stereo not shown) [Compound I-200], for which the pIC50 in experiment [1] (antagonist mode) is 8.62; in experiment [2] (antagonist mode) it was 8.54; in experiment [3] (antagonist mode), less than 6.00; in experiment [4] (antagonist mode) it was less than 6.00.

With `CC(C)(C)c1cc(-c2ccc(F)cc2)nn2cc(C(=O)N3CCN(C(=O)c4ccno4)CC3(C)C)nc12` [Compound I-202], the pIC50 in experiment [1] (antagonist mode) was 9.22; in experiment [2] (antagonist mode) it was 9.05; in experiment [3] (antagonist mode), less than 6.00; in experiment [4] (antagonist mode), less than 6.00.

Take `CC(C)(C)c1cc(-c2ccc(F)cc2)nn2cc(C(=O)N3CCN(C(=O)c4ccon4)CC3(C)C)nc12` [Compound I-203]: the pIC50 in experiment [1] (antagonist mode) is 9.15; in experiment [2] (antagonist mode), 9.00; in experiment [3] (antagonist mode), less than 6.00; in experiment [4] (antagonist mode) it was less than 6.00.

Consider `CC1(C)CN(C(=O)C2CC(O)(C(F)(F)F)C2)CCN1C(=O)c1cn2nc(-c3ccc(F)cc3)cc(C3CCOCC3)c2n1` (stereo not shown) [Compound I-204], for which the pIC50 in experiment [1] (antagonist mode) was 7.37; in experiment [2] (antagonist mode) it was 7.03; in experiment [3] (antagonist mode) it was less than 6.00; in experiment [4] (antagonist mode), less than 6.00.

On to `CC(C)(C)c1cc(-c2ccc(F)cc2)nn2cc(C(=O)N3CCNCC3(C)C)nc12` [Compound I-205], for which the pIC50 in experiment [1] (antagonist mode) is 6.51; in experiment [2] (antagonist mode), 6.24; in experiment [3] (antagonist mode), less than 6.00; in experiment [4] (antagonist mode), less than 6.00.

As to `CC(C)(C)c1cc(-c2ccc(F)cc2)nn2cc(C(=O)N3CCN(C4CC4)C(=O)C3(C)C)nc12` [Compound I-206], the pIC50 in experiment [1] (antagonist mode) is 9.10; in experiment [2] (antagonist mode), 9.10; in experiment [3] (antagonist mode) it was less than 6.00; in experiment [4] (antagonist mode) it was less than 6.00.

In the case of `CC(C)N1CCN(C(=O)c2cn3nc(-c4ccc(F)cc4)cc(C(C)(C)C)c3n2)C(C)(C)C1=O` [Compound I-207], the negative logarithm of the IC50 (pIC50) is 8.01 in experiment [1] (antagonist mode), 8.08 in experiment [2] (antagonist mode), less than 6.00 in experiment [3] (antagonist mode) and less than 6.00 in experiment [4] (antagonist mode).
